IC50 data for 26 compounds are collected here from patent US11028090B2 (Dong Wha Pharm. Co., Ltd., priority 2017, dated 2021).

Where two headings read alike, the source gives them in different places.

For series [1], the target named is BRD4 (BD1+BD2) bromodomain (Homo sapiens (Human), UniProt O60885). As to the kind of experiment: BRD4 binding inhibition (AlphaScreen, GST-BRD4 vs tetraacetylated histone H4 peptide). Summed up:
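AlphaScreen read after 30 min dark incubation at room temperature with glutathione acceptor/streptavidin donor beads (10 μg/ml each). The beads were added to compound plus 100 nM biotin-H4 (K5,8,12,16-acetyl) peptide and 100 nM GST-BRD4 BD1+BD2 in pH 7.4 HEPES/Tween/BSA/DTT buffer.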
In general terms: In Alpha technology, singlet oxygen from a donor bead excites a nearby acceptor bead.

The subject of series [2] is thymus cancer cells (Ty-82 cells). As to the kind of experiment: Cytotoxicity to thymus cancer cells (Ty-82 cells), WST-1. The following applies: Homo sapiens, TY82, 72 h.
Experimental: The following experiment was performed to evaluate the cytotoxicity of [1,2,4]triazolo[4,3-a]quinoxaline derivative according to the present invention to thymus cancer cells (Ty-82 cells).
First, thymus cancer cells (Ty-82 cells) were distributed in a 96 well plate at the density of 2.5×10^4 cells/well. 24 hours later, the plated cells were treated with the compounds of the present invention dissolved in DMSO at the different concentrations ranging from 0.01 μM to 10 μM. 72 hours later, the activities of the compounds were determined using WST-1 reagent.
Series [3] concerns acute myelogenous leukemia cells (MV-4-11 cells). As to the kind of experiment: Cytotoxicity to acute myelogenous leukemia cells (MV-4-11 cells), CCK-8.
Experimental: The following experiment was performed to evaluate the cytotoxicity of [1,2,4]triazolo[4,3-a]quinoxaline derivative according to the present invention to acute myelogenous leukemia cells (MV-4-11 cells).
Acute myelogenous leukemia cells (MV-4-11 cells) were distributed in a 96 well plate at the density of 5×10^3 cells/well. The plated cells were treated with the compounds of the present invention dissolved in DMSO at the different concentrations ranging from 0.01 μM to 10 μM. 72 hours later, the activities of the compounds were determined using CCK-8 reagent.
[4] abbreviates: GST-BRD4 (BD1+BD2) / biotinylated acetyl-histone H4 (Lys5,8,12,16) peptide, read-out: IC50, BRD4 binding inhibition.
The mark [5] stands for this setting: GST-BRD4 (BD1+BD2) vs biotinylated acetyl-histone H4 peptide, AlphaScreen, read-out: BRD4 IC50.
Setting [6] is: read-out: Ty-82 Cytotoxicity IC50.
[7] abbreviates: Homo sapiens, MV4-11, 72 h, read-out: MV-4-11 Cytotoxicity IC50.
Setting [8] is: Homo sapiens, MV4-11, 72 h, read-out: IC50, cytotoxicity against acute myelogenous leukemia cells.

As usually defined, the IC50 is the concentration needed to halve the response being measured. For `Cc1nnc2c(NCCCCNC(=O)C(C)(C)C)nc3ccccc3n12` [Example 3, 2,2-dimethyl-N-[4-(1-methyl-[1,2,4]triazolo[4,3-a]quinoxaline-4-ylamino)-butyl]-propionamide], the IC50 was at most 50 nM in series [1] (setting [4]), 28 nM in series [1] (setting [5]) and 920 nM in series [2] (setting [6]).
As to `Cc1nnc2c(NCCCCNC(=O)OC(C)C)nc3ccccc3n12` [Example 4, [4-(1-methyl-[1,2,4]triazolo[4,3-a]quinoxaline-4-ylamino)-butyl]-carbamic acid isopropylester], the IC50 in series [1] (setting [4]) was at most 50 nM; in series [2] (setting [6]), 650 nM.
For `Cc1nnc2c(NCCCCNC(=O)CC(C)C)nc3ccccc3n12` [Example 7, 3-methyl-N-[4-(1-methyl-[1,2,4]triazolo[4,3-a]quinoxaline-4-ylamino)-butyl]-butyramide], the IC50 was at most 50 nM in series [1] (setting [4]); 20 nM in series [1] (setting [5]); at most 500 nM in series [2] (read-out: IC50, cytotoxicity against thymus cancer cells); 260 nM in series [2] (setting [6]).
Take `Cc1nnc2c(NCCCCNC(=O)CC(C)(C)C)nc3ccccc3n12` [Example 8, 3,3-dimethyl-N-[4-(1-methyl-[1,2,4]triazolo[4,3-a]quinoxaline-4-ylamino)-butyl]-butyramide]: the figures for the IC50 in series [1] (setting [4]), in series [1] (setting [5]) and in series [2] (setting [6]) were at most 50 nM, 24 nM and 860 nM, respectively.
As for `Cc1nnc2c(NCCCCNC(=O)c3ccccc3Cl)nc3ccccc3n12` [Example 12], the results for the IC50 in series [1] (setting [5]) and in series [2] (setting [6]) were 58 nM and 850 nM, respectively.
The like results for `COc1cc2nc(NCCCCNC(=O)c3ccc([N+](=O)[O-])cc3)c3nnc(C)n3c2cc1OC` [Example 101, N-[4-(7,8-dimethoxy-1-methyl-[1,2,4]triazolo[4,3-a]quinoxaline-4-ylamino)-butyl]-4-nitro-benzamide] were, in that order, 51 nM and 880 nM.
`COc1cccc2c1nc(NCCCCNC(=O)OCC(C)C)c1nnc(C)n12` [Example 120, N-[4-(6-methoxy-1-methyl-[1,2,4]triazolo[4,3-a]quinoxaline-4-ylamino)-butyl]-carbamic acid isobutylester]: the IC50 in series [1] (setting [4]) is at most 50 nM; in series [1] (setting [5]), 34 nM; in series [2] (setting [6]), 620 nM.
Taken in the same sequence, the figures for `COc1ccc2nc(NCCCCNC(=O)c3ccccc3)c3nnc(C)n3c2c1` [Example 127, N-[4-(8-methoxy-1-methyl-[1,2,4]triazolo[4,3-a]quinoxaline-4-ylamino)-butyl]-benzamide] were at most 50 nM, 46 nM and 620 nM.
The like results for `COc1ccc2nc(NCCCCNC(=O)c3ccc(C)nc3Cl)c3nnc(C)n3c2c1` [Example 129] were, in that order, at most 50 nM, 17 nM and 830 nM.
Taken in the same sequence, the figures for `COc1c(C)ccc2c1nc(NCCCCNC(=O)OC(C)C)c1nnc(C)n12` [Example 133, [4-(6-methoxy-1,7-dimethyl-[1,2,4]triazolo[4,3-a]quinoxaline-4-ylamino)-butyl]-carbamic acid isopropylester] were at most 50 nM, 34 nM and 880 nM.
In the case of `CCc1nnc2c(NCCCCNC(=O)OCC(C)C)nc3cc(OC)c(OC)cc3n12` [Example 598, [4-(1-ethyl-7,8-dimethoxy-[1,2,4]triazolo[4,3-a]quinoxaline-4-ylamino)-butyl]-carbamic acid isobutylester], the concentration for half-maximal inhibition (IC50) in series [1] (setting [4]) is at most 50 nM; in series [1] (setting [5]), 18 nM; in series [3] (setting [7]), 290 nM.
For the compound `COc1cc2nc(NCCCCNC(=O)OC(C)C)c3nnc(C(C)C)n3c2cc1OC` [Example 601, [4-(1-isopropyl-7,8-dimethoxy-[1,2,4]triazolo[4,3-a]quinoxaline-4-ylamino)-butyl]-carbamic acid isopropylester], the values for the half-maximal inhibitory concentration (IC50) in series [1] (setting [5]) and in series [3] (setting [7]) were 56 nM and 230 nM, respectively.
Taken in the same sequence, the figures for `COc1cc2nc(NCCCCNC(=O)OCC(C)C)c3nnc(C(C)C)n3c2cc1OC` [Example 602, [4-(1-isopropyl-7,8-dimethoxy-[1,2,4]triazolo[4,3-a]quinoxaline-4-ylamino)-butyl]-carbamic acid isobutylester] were 58 nM and 290 nM.
Regarding `CCc1nnc2c(NCCCCNC(=O)OC(C)(C)C)nc3cc(OC)ccc3n12` [Example 620, [4-(7-methoxy-1-ethyl-[1,2,4]triazolo[4,3-a]quinoxaline-4-ylamino)-butyl]-carbamic acid-tert-butylester], the IC50 in series [1] (setting [4]) is at most 50 nM; in series [1] (setting [5]), 16 nM; in series [3] (setting [7]), 700 nM.
Taken in the same sequence, the figures for `CCc1nnc2c(NCCCCNC(=O)OC(C)C)nc3cc(OC)ccc3n12` [Example 623, [4-(7-methoxy-1-ethyl-[1,2,4]triazolo[4,3-a]quinoxaline-4-ylamino)-butyl]-carbamic acid isopropylester] were at most 50 nM, 5 nM and 400 nM.
With `CCc1nnc2c(NCCCCNC(=O)OCC(C)C)nc3cc(OC)ccc3n12` [Example 624, [4-(7-methoxy-1-ethyl-[l,2,4]triazolo[4,3-a]quinoxaline-4-ylamino)-butyl]-carbamic acid isobutylester], the half-inhibitory concentration (IC50) in series [1] (setting [4]) is at most 50 nM; in series [1] (setting [5]) it was 16 nM; in series [3] (setting [7]) it was 410 nM.
In the case of `COc1cc2nc(NCCCCC(=O)NCC(C)C)c3nnc(C)n3c2cc1OC` [Example 648, 5-(7,8-dimethoxy-1-methyl-[1,2,4]triazolo[4,3-a]quinoxaline-4-ylamino)-pentanoic acid-isobutylamide], the IC50 in series [1] (setting [4]) was at most 50 nM; in series [1] (setting [5]) it was 27 nM; in series [3] (setting [8]), at most 200 nM; in series [3] (setting [7]), 130 nM.
Taken in the same sequence, the figures for `CCC(C)CNC(=O)CCCCNc1nc2cc(OC)c(OC)cc2n2c(C)nnc12` (stereo not shown) [Example 649, 5-(7,8-dimethoxy-1-methyl-[1,2,4]triazolo[4,3-a]quinoxaline-4-ylamino)-pentanoic acid-(2-methyl-butyl)-amide] were at most 50 nM, 23 nM, at most 200 nM and 160 nM.
In the case of `COc1cc2nc(NCCCCC(=O)NCc3ccco3)c3nnc(C)n3c2cc1OC` [Example 650, 5-(7,8-dimethoxy-1-methyl-[1,2,4]triazolo[4,3-a]quinoxaline-4-ylamino)-pentanoic acid-(furan-2-ylmethyl)-amide], the IC50 is at most 50 nM in series [1] (setting [4]), 18 nM in series [1] (setting [5]) and 220 nM in series [3] (setting [7]).
In the case of `COc1cc2nc(NCCCCC(=O)NCc3ccccc3)c3nnc(C)n3c2cc1OC` [Example 651, 5-(7,8-dimethoxy-1-methyl-[1,2,4]triazolo[4,3-a]quinoxaline-4-ylamino)-pentanoic acid-benzylamide], the IC50 in series [1] (setting [4]) was at most 50 nM; in series [1] (setting [5]), 23 nM; in series [3] (setting [8]), at most 200 nM; in series [3] (setting [7]), 120 nM.
Taken in the same sequence, the figures for `COc1cc2nc(NCCCCC(=O)NCc3ccc[nH]3)c3nnc(C)n3c2cc1OC` [Example 652, 5-(7,8-dimethoxy-1-methyl-[1,2,4]triazolo[4,3-a]quinoxaline-4-ylamino)-pentanoic acid-(1H-pyrrole-2-ylmethyl)-amide] were at most 50 nM, 27 nM, at most 200 nM and 200 nM.
`COc1ccc2c(c1)nc(NCCCCC(=O)NC(C)C)c1nnc(C)n12` [Example 654, 5-(7-methoxy-1-methyl-[1,2,4]triazolo[4,3-a]quinoxaline-4-ylamino)-pentanoic acid isopropylamide]: the half-maximal inhibitory concentration (IC50) was at most 50 nM in series [1] (setting [4]), 11 nM in series [1] (setting [5]) and 270 nM in series [3] (setting [7]).
In the case of `COc1ccc2c(c1)nc(NCCCCC(=O)NCC(C)C)c1nnc(C)n12` [Example 655, 5-(7-methoxy-1-methyl-[1,2,4]triazolo[4,3-a]quinoxaline-4-ylamino)-pentanoic acid isobutylamide], the IC50 was at most 50 nM in series [1] (setting [4]), 11 nM in series [1] (setting [5]), at most 200 nM in series [3] (setting [8]) and 80 nM in series [3] (setting [7]).
In the case of `CCC(C)CNC(=O)CCCCNc1nc2cc(OC)ccc2n2c(C)nnc12` (stereo not shown) [Example 656, 5-(7-methoxy-1-methyl-[1,2,4]triazolo[4,3-a]quinoxaline-4-ylamino)-pentanoic acid-(2-methyl-butyl)-amide], the concentration for half-maximal inhibition (IC50) in series [1] (setting [4]) is at most 50 nM; in series [1] (setting [5]), 12 nM; in series [3] (setting [8]), at most 200 nM; in series [3] (setting [7]), 150 nM.
Take `COc1ccc2c(c1)nc(NCCCCC(=O)NCc1ccco1)c1nnc(C)n12` [Example 657]: the IC50 in series [1] (setting [4]) is at most 50 nM; in series [1] (setting [5]) it was 16 nM; in series [3] (setting [8]), at most 200 nM; in series [3] (setting [7]), 80 nM.
“benzoic acid 1-methyl-4-[4-(3-methyl-butylamino)-butylamino]-[1,2,4]triazolo[4,3-a]quinoxaline-7-yl ester [Example 350]”: the IC50 in series [1] (setting [4]) was at most 50 nM; in series [1] (setting [5]), 33 nM; in series [3] (read-out: IC50, cytotoxicity against acute myelogenous leukemia cells, MV-4-11 cells, 72 hours, CCK-8), at most 200 nM; in series [3] (read-out: MV-4-11 Cytotoxicity IC50, MV-4-11 cells, 72 hours, CCK-8), 71 nM.
